For 27 molecules, melting point, remaining activity and IC50 results are on record in patent US9586975B2, “Macrocyclic salt-inducible kinase inhibitors” (ONCODESIGN S.A., priority 2013, dated 2017).

The target in one series is T1, SIK2 recombinant protein (Homo sapiens, UniProt Q9H0K1).
T1 construct: purchased Invitrogen Corporation
In words: Radiometric protein kinase assay (33PanQinase Activity Assay) for inhibition of SIK2 kinase. To be noted: for remaining activity at 0.1 µM / remaining activity at 1 µM: 1 h; for remaining activity at 0.1 µM: compound at 0.1 μM; for remaining activity at 1 µM: compound at 1 μM; for IC50: ATP 1.0 μM, SIK2 0.3 nM, substrate RBER-Chktide. The format is biochemical. The procedure: The inhibition of SIK2 kinase was assessed using SIK2 recombinant protein in an in vitro peptide-based kinase assay.
A radiometric protein kinase assay (^33PanQinase® Activity Assay) is used for measuring the kinase activity. All assays are performed in 96-well FlashPlates™ from Perkin Elmer in a 50 μl reaction volume. The reaction cocktail is […] in 4 steps in the following order: • 10 μl of non-radioactive ATP solution (in H2O) • 25 μl of assay buffer/[γ-^33P]-ATP mixture • 5 μl of test sample in 10% DMSO • 10 μl of enzyme/substrate mixture
The assay for SIK2 contains 70 mM HEPES-NaOH pH 7.5, 3 mM MgCl2, 3 mM MnCl2, 3 μM Na-orthovanadate, 1.2 mM DTT, 50 μg/ml PEG20000, ATP (1.0 μM), [γ-^33P]-ATP (approx. 5×10^05 cpm per well), protein kinase SIK2 (0.3 nM) and substrate (RBER-Chktide), 2.0 μg/50 μl).
The kinase is obtained from Invitrogen Corporation.
The reaction cocktails were incubated at 30° C. for 60 minutes. The reaction was stopped with 50 μl of 2% (v/v) H3PO4, plates were aspirated and washed two times with 200 μl 0.9% (w/v) NaCl. Incorporation of ^33Pi (counting of “cpm”) was determined with a microplate scintillation counter.
The compounds are dissolved to 10 mM in DMSO. Where needed, solutions are sonicated in a bath sonicator.
Table 4 provides the pIC50 values and % Remaining activity values at two concentrations (1 μM and 0.1 μM) of the compounds according to the invention, obtained using the above mentioned kinase assay.

Each structure is given as a SMILES string. Structures can show the parent of a compound that is named as a salt.

T1 sequence (Q9H0K1 whole entry): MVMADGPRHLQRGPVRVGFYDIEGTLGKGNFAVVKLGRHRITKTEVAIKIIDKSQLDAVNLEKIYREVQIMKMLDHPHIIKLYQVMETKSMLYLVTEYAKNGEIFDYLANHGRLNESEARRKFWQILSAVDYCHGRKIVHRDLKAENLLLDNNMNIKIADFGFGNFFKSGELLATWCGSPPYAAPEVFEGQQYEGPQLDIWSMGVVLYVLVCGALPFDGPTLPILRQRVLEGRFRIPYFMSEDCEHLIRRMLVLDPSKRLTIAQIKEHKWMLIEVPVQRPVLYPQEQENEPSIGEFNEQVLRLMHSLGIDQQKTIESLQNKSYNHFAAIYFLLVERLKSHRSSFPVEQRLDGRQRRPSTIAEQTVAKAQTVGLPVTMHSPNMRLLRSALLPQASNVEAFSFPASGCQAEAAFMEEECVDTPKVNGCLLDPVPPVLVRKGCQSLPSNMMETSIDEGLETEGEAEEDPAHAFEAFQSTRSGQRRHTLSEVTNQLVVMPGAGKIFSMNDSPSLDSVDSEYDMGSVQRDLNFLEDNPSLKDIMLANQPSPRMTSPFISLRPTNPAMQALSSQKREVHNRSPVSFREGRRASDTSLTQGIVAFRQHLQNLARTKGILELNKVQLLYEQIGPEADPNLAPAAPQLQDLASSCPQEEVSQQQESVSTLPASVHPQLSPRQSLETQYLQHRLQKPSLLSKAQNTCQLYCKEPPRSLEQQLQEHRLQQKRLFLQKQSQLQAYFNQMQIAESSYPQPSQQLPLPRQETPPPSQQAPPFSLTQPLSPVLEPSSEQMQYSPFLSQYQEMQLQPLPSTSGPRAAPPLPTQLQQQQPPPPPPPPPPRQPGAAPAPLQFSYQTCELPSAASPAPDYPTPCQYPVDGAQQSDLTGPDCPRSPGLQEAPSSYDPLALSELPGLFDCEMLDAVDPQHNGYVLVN

Molecule `CNCCN1CCOc2cccc(c2)-c2cnn3ccc(nc23)OCC1` (as salt: HCl) [Compound H86] had a melting point of 247 °C.

The molecule `c1cc2cc(c1)-c1cnn3ccc(nc13)OCCCNCCCN2` (as salt: HCl) [Compound H89] showed a melting point of 273.3 °C.

In turn, `CN(C)CCNC(=O)N1CCNCCOc2cccc(c2)-c2cnn3ccc1nc23` [Compound A11] displayed a melting point of over 300 °C. In addition, at SIK2 recombinant protein, the remaining activity at 0.1 µM was under 50%, the remaining activity at 1 µM is under 50% and the IC50 is under 100 nM.

As for `O=C(C1CC1)N1CCNc2ccn3ncc(c3n2)-c2cc(CO)cc(c2)OCC1` [Compound B75], at SIK2 recombinant protein, the remaining activity at 0.1 µM was under 50% and the remaining activity at 1 µM is under 50%.

For the molecule `COCc1cc2cc(c1)-c1cnn3ccc(nc13)NCCNCCO2` [Compound H78], on SIK2 recombinant protein, the remaining activity at 0.1 µM was under 50%, the remaining activity at 1 µM is under 50% and the concentration for half-maximal inhibition (IC50) was under 100 nM.

Consider `COCc1cc2cc(c1)-c1cnn3ccc(nc13)NCCN(C(=O)C1CC1)CCO2` [Compound H79], for which the melting point was over 300 °C. Moreover, the IC50 at SIK2 recombinant protein was under 100 nM.

In the case of `OCc1cc2cc(c1)-c1cnn3ccc(nc13)NCCNCCO2` [Compound H80], the IC50 at SIK2 recombinant protein was under 100 nM.

`OCc1cc2cc(c1)-c1cnn3ccc(nc13)NCCN(CC1CC1)CCO2` [Compound H81]: the melting point turned out to be 179.1 °C. Further, at SIK2 recombinant protein, the remaining activity at 0.1 µM was under 50%, the remaining activity at 1 µM was under 50% and the IC50 was under 100 nM.

Molecule `Cc1ccc2cc1OCCNCCNc1ccn3ncc-2c3n1` [Compound H82] had a melting point of over 300 °C. At SIK2 recombinant protein, the remaining activity at 0.1 µM is under 50%, the remaining activity at 1 µM is under 50% and the IC50 is under 100 nM.

The molecule `Fc1cc2cc(c1)-c1cnn3ccc(nc13)NCCN(C1CCNCC1)CCO2` [Compound H83] showed a melting point of 246.2 °C. In addition, at SIK2 recombinant protein, the remaining activity at 0.1 µM is under 50%, the remaining activity at 1 µM is under 50% and the IC50 was under 100 nM.

For the molecule `NCCN1CCNc2ccn3ncc(c3n2)-c2cccc(c2)OCC1` [Compound H84], the melting point is over 300 °C. In addition, on SIK2 recombinant protein, the remaining activity at 0.1 µM is under 50%, the remaining activity at 1 µM was under 50% and the IC50 was under 100 nM.

In turn, `c1cc2cc(c1)-c1cnc3ccc(nn13)SCCNCCCN2` [Compound H85] had a melting point of 173.1 °C. Besides, on SIK2 recombinant protein, the remaining activity at 0.1 µM is under 50%, the remaining activity at 1 µM was under 50% and the IC50 is under 100 nM.

Consider `CNCCN1CCOc2cccc(c2)-c2cnn3ccc(nc23)OCC1` [Compound H86], for which, at SIK2 recombinant protein, the remaining activity at 0.1 µM was under 50%, the remaining activity at 1 µM was under 50% and the IC50 is under 100 nM.

For `c1cc2cc(c1)-c1cnn3ccc(nc13)OCCCNCCO2` [Compound H87], on SIK2 recombinant protein, the remaining activity at 0.1 µM was over 50%, the remaining activity at 1 µM is under 50% and the concentration for half-maximal inhibition (IC50) is under 100 nM.

Take `c1cc2cc(c1)-c1cnn3ccc(nc13)NCCCNCCCO2` [Compound H88]: on SIK2 recombinant protein, the remaining activity at 0.1 µM is under 50%, the remaining activity at 1 µM is under 50% and the 50% inhibitory concentration (IC50) was under 100 nM.

In the case of `c1cc2cc(c1)-c1cnn3ccc(nc13)OCCCNCCCN2` [Compound H89], on SIK2 recombinant protein, the remaining activity at 0.1 µM is over 50%, the remaining activity at 1 µM is under 50% and the IC50 was under 100 nM.

For the molecule `FC(F)(F)c1cc2cc(c1)-c1cnn3ccc(nc13)NCCCNCCO2` [Compound H90], the melting point was over 300 °C. In addition, on SIK2 recombinant protein, the remaining activity at 0.1 µM was under 50%, the remaining activity at 1 µM is under 50% and the half-maximal inhibitory concentration (IC50) is under 100 nM.

On to `CN1CCCNc2ccn3ncc(c3n2)-c2cc(cc(C(F)(F)F)c2)OCC1` [Compound H91], for which, at SIK2 recombinant protein, the remaining activity at 0.1 µM was under 50%, the remaining activity at 1 µM was under 50% and the concentration for half-maximal inhibition (IC50) is under 100 nM.

`Cc1cc2cc(c1)-c1cnn3ccc(nc13)NCCCNCCO2` [Compound H92] gave a melting point of over 300 °C. Also, on SIK2 recombinant protein, the remaining activity at 0.1 µM is under 50%, the remaining activity at 1 µM was under 50% and the IC50 is under 100 nM.

As to `Cc1cc2cc(c1)-c1cnn3ccc(nc13)NCCCN(C)CCO2` [Compound H93], at SIK2 recombinant protein, the remaining activity at 0.1 µM was under 50%, the remaining activity at 1 µM is under 50% and the half-maximal inhibitory concentration (IC50) is under 100 nM.

For the molecule `CN1CCCOc2cccc(c2)-c2cnn3ccc(nc23)NCC1` [Compound H94], the melting point was 288 °C. Also, the concentration for half-maximal inhibition (IC50) at SIK2 recombinant protein is under 100 nM.

Consider `CCN1CCCNc2ccn3ncc(c3n2)-c2cc(C)cc(c2)OCC1` [Compound H95], for which, on SIK2 recombinant protein, the remaining activity at 0.1 µM was under 50%, the remaining activity at 1 µM is under 50% and the IC50 is under 100 nM.

For the molecule `OCc1cc2cc(c1)-c1cnn3ccc(nc13)NCCCNCCO2` [Compound H96], at SIK2 recombinant protein, the remaining activity at 0.1 µM was under 50%, the remaining activity at 1 µM was under 50% and the IC50 is under 100 nM.

With `OCCN1CCNc2ccn3ncc(c3n2)-c2cc(Cl)cc(c2)OCC1` [Compound H97], the melting point is 285.2 °C. Also, at SIK2 recombinant protein, the remaining activity at 0.1 µM was under 50%, the remaining activity at 1 µM is under 50% and the half-maximal inhibitory concentration (IC50) is under 100 nM.

Regarding `c1cc2cc(c1)-c1cnn3ccc(nc13)SCCNCCCO2` [Compound H98], the melting point was 178.1 °C. On SIK2 recombinant protein, the remaining activity at 0.1 µM was under 50%, the remaining activity at 1 µM is under 50% and the concentration for half-maximal inhibition (IC50) was 100 to 1000 nM.

For the molecule `c1cc2cc(c1)-c1cnc3ccc(nn13)SCCNCCCO2` [Compound H99], the melting point worked out at 125.6 °C. Also, at SIK2 recombinant protein, the IC50 lay in the range of 100 to 1000 nM.

As for `OCc1cc2cc(c1)-c1cnn3ccc(nc13)NCCCNCCN2` [Compound H100], on SIK2 recombinant protein, the remaining activity at 0.1 µM is under 50%, the remaining activity at 1 µM is under 50% and the half-inhibitory concentration (IC50) is under 100 nM.

A word on the melting point: it is the temperature, or range, at which the solid turns liquid. The term remaining activity denotes the signal under treatment as a percentage of the control signal. The term IC50 denotes the point on the concentration scale where inhibition reaches its midpoint.
